From US20250145631A1, “HETEROCYCLIC COMPOUND ACTING ON G12D MUTANT KRAS PROTEIN” (Astellas Pharma Inc., priority 2022, published 2025)

Tests used:
Format in all cases: cell-based
[1] = system: phosphorylation of ERK (Thr202/Tyr204); test: ERK phosphorylation inhibitory effect by Cell ELISA in AsPC-1 cells (Test Example 2); settings: Homo sapiens, ASPC1, overnight treatment, Cell ELISA, read-out: IC50 (ERK phosphorylation inhibition)
How it was run: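 AsPC-1 cells (2.0×10^4/well, RPMI 1640 + 10% FBS) treated overnight with compounds (10 points, 10 μM to 0.3 nM final), then glyoxal-fixed and immunostained for phospho-ERK with IRDye 800CW secondary; 800-nm fluorescence read. IC50 by Sigmoid-Emax regression, normalized to DMSO (100%) and 1 μM trametinib (0%).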

KRAS G12D = molecular target: T1, KRAS G12D (Homo sapiens, UniProt P01116, G12D); test: KRAS degradation activity by Cell ELISA in AsPC-1 cells (Test Example 1); settings: Cell ELISA; for Dmax: ASPC1, overnight treatment, read-out: Dmax (degradation rate at the concentration showing highest degradation); for DC50: overnight treatment, read-out: DC50 (50% degradation concentration of KRAS)
T1 construct: host or cells: AsPC-1 (human pancreatic cancer line)
T1 sequence (P01116 1-188 isoform P01116-2 G12D): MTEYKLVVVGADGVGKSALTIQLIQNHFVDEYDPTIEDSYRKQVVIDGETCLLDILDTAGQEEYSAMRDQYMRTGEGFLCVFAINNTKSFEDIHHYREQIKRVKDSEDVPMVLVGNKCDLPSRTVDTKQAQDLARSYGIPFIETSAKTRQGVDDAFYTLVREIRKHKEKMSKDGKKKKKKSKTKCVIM
How it was run: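 AsPC-1 cells (2.0×10^4/well) treated overnight with compounds at 10 μM–0.3 nM (10 points), then fixed, permeabilised and stained for KRAS G12D (800 nm) and β-actin (700 nm) by in-cell ELISA. KRAS signal normalised to β-actin, DMSO set as 0% and actin-only staining as 100%; DC50 from Sigmoid-Emax regression up to Dmax.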

[2] = system: human G12D mutant KRAS-positive pancreatic cancer line AsPC-1; test: Non-anchorage-dependent cell growth inhibitory effect, spheroid 3D culture (Test Example 3); settings: ASPC1, 144 h, AsPC-1 spheroid 3D culture, 6 days, CellTiter Glo 2.0, read-out: IC50 (non-anchorage-dependent cell growth inhibition)
How it was run: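 AsPC-1 cells grown as spheroids in RPMI 1640 with 10% FBS at 37° C, 5% CO2, then exposed to compounds (10 μM to 0.3 nM final) for 6 days. Viability read by CellTiter Glo 2.0 luminescence. IC50 from Sigmoid-Emax regression with DMSO as 100% and cell-free medium as 0%.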

IC50 [1]	Dmax (KRAS G12D)	DC50 (KRAS G12D)	IC50 [2]	Structure (SMILES)
59 nM	84%	58 nM	142 nM	Cc1c(F)cc2[nH]ncc2c1-c1c(C2CC2)cc2c(N3C[C@@H]4C[C@H]3CN4)nc(OC3CCOCC3)nc2c1OCc1ccc(C(=O)N2CCN(Cc3ccc4c(n3)n(C)c(=O)n4C3CCC(=O)NC3=O)CC2)cc1 (some centres unmarked) [Example 11]
250 nM	77%	85 nM	217 nM	CO[C@@H](C)COc1nc(N(C)[C@H]2CCNC2)c2cc(C3CC3)c(-c3c(C)c(F)cc4[nH]ncc34)c(OCc3ccc(C(=O)N4CCN(Cc5ccc6c(c5)n(C)c(=O)n6C5CCC(=O)NC5=O)C[C@@H]4C)cc3)c2n1 (some centres unmarked) [Example 18]
1280 nM	71%	1480 nM	1440 nM	Cc1c(F)cc2[nH]ncc2c1-c1c(C2CC2)cc2c(N3C[C@@H]4C[C@H]3CN4)nc(OC3CCOCC3)nc2c1OCc1ccc(C(=O)N2CCC(CNc3cccc4c3C(=O)N(C3CCC(=O)NC3=O)C4=O)CC2)cc1 (some centres unmarked) [Example 30]
158 nM	71%	115 nM	147 nM	Cc1c(F)cc2[nH]ncc2c1-c1c(C2CC2)cc2c(O[C@H]3CCNC3)cc(OC[C@@H]3CCCO3)nc2c1OCc1ccc(C(=O)N2CCN(Cc3ccc4c(c3)n(C)c(=O)n4C3CCC(=O)NC3=O)C[C@@H]2C)cc1 (some centres unmarked) [Example 31]
102 nM	88%	79 nM	142 nM	Cc1c(F)cc2[nH]ncc2c1-c1c(C2CC2)cc2c(N3C[C@@H]4C[C@H]3CN4)nc(OC3CCOCC3)nc2c1OCc1ccc(C(=O)N2CCN(Cc3ccc4c(c3)CN(C3CCC(=O)NC3=O)C4=O)C[C@@H]2C)cc1 (stereo partly drawn) [Example 33, 3-(5-{[(3S)-4-{4-[({(7M)-6-cyclopropyl-4-[(1S,4S)-2,5-diazabicyclo[2.2.1]heptan-2-yl]-7-(6-fluoro-5-methyl-1H-indazol-4-yl)-2-[(oxan-4-yl)oxy]quinazolin-8-yl}oxy)methyl]benzoyl}-3-methylpiperazin-1-yl]methyl}-1-oxo-1,3-dihydro-2H-isoindol-2-yl)piperidine-2,6-dione]
1510 nM	48%	3670 nM	1110 nM	CO[C@@H](C)COc1nc(N(C)[C@@H]2CCNC2)c2cc(C3CC3)c(-c3c(C)c(F)cc4[nH]ncc34)c(OCc3ccc(C(=O)N4CCN(Cc5ccc6c(c5)n(C)c(=O)n6C5CCC(=O)NC5=O)C[C@@H]4C)cc3)c2n1 (some centres unmarked) [Example 35]
78 nM	80%	79 nM	159 nM	Cc1c(F)cc2[nH]ncc2c1-c1c(C2CC2)cc2c(N3C[C@@H]4C[C@H]3CN4)nc(O[C@@H]3CCOC3)nc2c1OCc1ccc(C(=O)N2CCN(Cc3ccc4c(c3)n(C)c(=O)n4C3CCC(=O)NC3=O)C[C@@H]2C)cc1 (some centres unmarked) [Example 36]
41 nM	87%	30 nM	64 nM	Cc1c(F)cc2[nH]ncc2c1-c1c(C2CC2)cc2c(N3C[C@@H]4C[C@H]3CN4)nc(OC[C@H]3CCCO3)nc2c1OCc1ccc(C(=O)N2CCN(Cc3ccc4c(c3)n(C)c(=O)n4C3CCC(=O)NC3=O)C[C@@H]2C)cc1 (some centres unmarked) [Example 37]
31 nM	86%	22 nM	51 nM	CO[C@H](C)COc1nc(N2C[C@@H]3C[C@H]2CN3)c2cc(C3CC3)c(-c3c(C)c(F)cc4[nH]ncc34)c(OCc3ccc(C(=O)N4CCN(Cc5ccc6c(c5)n(C)c(=O)n6C5CCC(=O)NC5=O)C[C@@H]4C)cc3)c2n1 (some centres unmarked) [Example 38]
30 nM	83%	22 nM	52 nM	CO[C@@H](C)COc1nc(O[C@@H]2CCNC2)c2cc(C3CC3)c(-c3c(C)c(F)cc4[nH]ncc34)c(OCc3ccc(C(=O)N4CCN(Cc5ccc6c(c5)n(C)c(=O)n6C5CCC(=O)NC5=O)C[C@@H]4C)cc3)c2n1 (some centres unmarked) [Example 39]
30 nM	88%	23 nM	46 nM	Cc1c(F)cc2[nH]ncc2c1-c1c(C2CC2)cc2c(N3C[C@@H]4C[C@H]3CN4)nc(OC[C@@H]3CCCO3)nc2c1OCc1ccc(C(=O)N2CCN(Cc3ccc4c(c3)n(C)c(=O)n4C3CCC(=O)NC3=O)C[C@@H]2C)cc1 (some centres unmarked) [Example 40]
90 nM	78%	52 nM	155 nM	Cc1c(F)cc2[nH]ncc2c1-c1c(C2CC2)cc2c(N3C[C@@H]4C[C@H]3CN4)nc(O[C@H]3CCOC3)nc2c1OCc1ccc(C(=O)N2CCN(Cc3ccc4c(c3)n(C)c(=O)n4C3CCC(=O)NC3=O)C[C@@H]2C)cc1 (some centres unmarked) [Example 41]
13 nM	90%	9 nM	33 nM	CO[C@@H](C)COc1nc(O[C@H]2CCNC2)c2cc(C3CC3)c(-c3c(C)c(F)cc4[nH]ncc34)c(OCc3ccc(C(=O)N4CCN(Cc5ccc6c(c5)n(C)c(=O)n6C5CCC(=O)NC5=O)C[C@@H]4C)cc3)c2n1 (some centres unmarked) [Example 43]
69 nM	74%	41 nM	123 nM	CO[C@H](C)COc1cc(O[C@H]2CCNC2)c2cc(C3CC3)c(-c3c(C)c(F)cc4[nH]ncc34)c(OCc3ccc(C(=O)N4CCN(Cc5ccc6c(c5)n(C)c(=O)n6C5CCC(=O)NC5=O)C[C@@H]4C)cc3)c2n1 (some centres unmarked) [Example 44]
